Source: PMC6402191 (Clinical and Translational Science, 2017)
“And” between values parts separate entries of the source, which are not always exact repeats. Equal entries are not always repeated.

Legend:
OAT3 [1] = molecular target: T1, OAT3 (Homo sapiens, UniProt Q8TCC7); experiment: Uptake of baricitinib into OAT3-transfected HEK-PEAK cells; format: in vitro ADME
T1 sequence (Q8TCC7 1-542): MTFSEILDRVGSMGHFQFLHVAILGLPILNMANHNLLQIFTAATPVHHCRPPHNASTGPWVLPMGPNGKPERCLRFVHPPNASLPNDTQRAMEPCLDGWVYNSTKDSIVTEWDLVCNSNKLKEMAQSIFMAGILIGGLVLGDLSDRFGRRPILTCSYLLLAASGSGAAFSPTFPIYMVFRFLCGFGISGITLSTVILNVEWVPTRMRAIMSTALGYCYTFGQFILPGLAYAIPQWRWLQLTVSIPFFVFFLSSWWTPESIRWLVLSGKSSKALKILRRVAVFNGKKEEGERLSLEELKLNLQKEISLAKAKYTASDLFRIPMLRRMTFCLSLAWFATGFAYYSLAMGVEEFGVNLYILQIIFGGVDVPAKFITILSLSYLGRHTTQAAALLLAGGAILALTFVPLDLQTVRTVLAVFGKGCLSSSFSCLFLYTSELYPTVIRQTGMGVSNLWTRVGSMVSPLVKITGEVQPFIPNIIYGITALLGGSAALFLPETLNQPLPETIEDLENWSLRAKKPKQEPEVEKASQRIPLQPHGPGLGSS

P-gp = P-gp (Homo sapiens, UniProt P08183); experiment: Bidirectional transport of baricitinib in MDCK-MDR1 cells; format: in vitro ADME
BCRP = molecular target: T2, BCRP (Homo sapiens, UniProt Q9UNQ0); experiment: Bidirectional transport of baricitinib in MDCK-BCRP cells; format: in vitro ADME
T2 sequence (Q9UNQ0 1-655): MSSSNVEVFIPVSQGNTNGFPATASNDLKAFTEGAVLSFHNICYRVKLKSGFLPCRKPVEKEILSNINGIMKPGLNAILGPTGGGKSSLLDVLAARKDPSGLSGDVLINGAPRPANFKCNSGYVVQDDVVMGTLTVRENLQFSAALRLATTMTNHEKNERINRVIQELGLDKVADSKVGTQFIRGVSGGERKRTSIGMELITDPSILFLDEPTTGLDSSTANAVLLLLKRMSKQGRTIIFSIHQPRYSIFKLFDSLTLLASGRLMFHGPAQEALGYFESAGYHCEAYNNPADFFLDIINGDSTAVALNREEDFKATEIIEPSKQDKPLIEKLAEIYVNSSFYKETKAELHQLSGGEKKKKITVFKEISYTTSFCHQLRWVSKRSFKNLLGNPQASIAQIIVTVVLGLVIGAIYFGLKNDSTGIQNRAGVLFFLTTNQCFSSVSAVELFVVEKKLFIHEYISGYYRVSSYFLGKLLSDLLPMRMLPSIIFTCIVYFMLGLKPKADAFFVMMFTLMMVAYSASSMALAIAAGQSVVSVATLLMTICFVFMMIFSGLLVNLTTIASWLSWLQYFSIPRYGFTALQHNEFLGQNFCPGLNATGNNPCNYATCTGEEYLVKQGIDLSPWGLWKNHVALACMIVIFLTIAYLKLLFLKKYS

OCT2 = molecular target: T3, OCT2 (Homo sapiens, UniProt O15244); experiment: Baricitinib substrate study in OCT2-transfected HEK-PEAK cells; format: in vitro ADME
T3 sequence (O15244 1-555): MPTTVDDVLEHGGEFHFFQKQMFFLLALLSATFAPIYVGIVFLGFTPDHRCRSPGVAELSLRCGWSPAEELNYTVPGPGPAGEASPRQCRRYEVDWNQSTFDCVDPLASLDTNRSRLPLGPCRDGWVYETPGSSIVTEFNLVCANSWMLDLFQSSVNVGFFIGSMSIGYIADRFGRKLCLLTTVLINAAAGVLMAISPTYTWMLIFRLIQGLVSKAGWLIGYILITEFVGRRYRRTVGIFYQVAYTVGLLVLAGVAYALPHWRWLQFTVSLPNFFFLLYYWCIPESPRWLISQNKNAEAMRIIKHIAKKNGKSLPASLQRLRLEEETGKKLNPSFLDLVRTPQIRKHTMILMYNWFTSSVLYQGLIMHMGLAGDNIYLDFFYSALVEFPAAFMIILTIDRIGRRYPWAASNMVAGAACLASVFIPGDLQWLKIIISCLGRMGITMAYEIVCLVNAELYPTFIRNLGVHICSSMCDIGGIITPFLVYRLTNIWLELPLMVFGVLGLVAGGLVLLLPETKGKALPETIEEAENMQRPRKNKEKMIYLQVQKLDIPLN

OATP1B1 = molecular target: T4, OATP1B1 (Homo sapiens, UniProt Q9Y6L6); experiment: Baricitinib substrate study in OATP1B1-transfected HEK-PEAK cells; format: in vitro ADME
T4 sequence (Q9Y6L6 1-691): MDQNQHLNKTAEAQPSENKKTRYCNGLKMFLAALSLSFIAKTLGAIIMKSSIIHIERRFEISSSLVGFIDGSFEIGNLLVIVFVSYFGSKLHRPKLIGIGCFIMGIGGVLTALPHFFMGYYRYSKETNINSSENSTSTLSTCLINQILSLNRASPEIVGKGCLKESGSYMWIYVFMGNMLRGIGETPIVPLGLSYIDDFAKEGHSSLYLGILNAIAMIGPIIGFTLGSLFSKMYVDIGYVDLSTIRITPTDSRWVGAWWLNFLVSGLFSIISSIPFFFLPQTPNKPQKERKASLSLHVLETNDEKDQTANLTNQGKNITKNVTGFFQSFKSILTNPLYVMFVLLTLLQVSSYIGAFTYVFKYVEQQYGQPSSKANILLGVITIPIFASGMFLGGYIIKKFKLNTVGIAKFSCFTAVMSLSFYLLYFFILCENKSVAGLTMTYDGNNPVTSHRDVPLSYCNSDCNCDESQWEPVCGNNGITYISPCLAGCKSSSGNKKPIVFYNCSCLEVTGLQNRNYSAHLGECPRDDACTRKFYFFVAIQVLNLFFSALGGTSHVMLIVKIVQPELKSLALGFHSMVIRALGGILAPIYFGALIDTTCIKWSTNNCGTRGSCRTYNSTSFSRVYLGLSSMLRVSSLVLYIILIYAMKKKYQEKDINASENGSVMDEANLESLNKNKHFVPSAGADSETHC

OAT3 [2] = molecular target: T1, OAT3; experiment: PBPK DDI simulations of baricitinib with OAT3 inhibitors
[3] = Physicochemical input parameters
Plasma protein binding = format: in vitro ADME; settings: human

Chain of P-gp (P08183 whole entry): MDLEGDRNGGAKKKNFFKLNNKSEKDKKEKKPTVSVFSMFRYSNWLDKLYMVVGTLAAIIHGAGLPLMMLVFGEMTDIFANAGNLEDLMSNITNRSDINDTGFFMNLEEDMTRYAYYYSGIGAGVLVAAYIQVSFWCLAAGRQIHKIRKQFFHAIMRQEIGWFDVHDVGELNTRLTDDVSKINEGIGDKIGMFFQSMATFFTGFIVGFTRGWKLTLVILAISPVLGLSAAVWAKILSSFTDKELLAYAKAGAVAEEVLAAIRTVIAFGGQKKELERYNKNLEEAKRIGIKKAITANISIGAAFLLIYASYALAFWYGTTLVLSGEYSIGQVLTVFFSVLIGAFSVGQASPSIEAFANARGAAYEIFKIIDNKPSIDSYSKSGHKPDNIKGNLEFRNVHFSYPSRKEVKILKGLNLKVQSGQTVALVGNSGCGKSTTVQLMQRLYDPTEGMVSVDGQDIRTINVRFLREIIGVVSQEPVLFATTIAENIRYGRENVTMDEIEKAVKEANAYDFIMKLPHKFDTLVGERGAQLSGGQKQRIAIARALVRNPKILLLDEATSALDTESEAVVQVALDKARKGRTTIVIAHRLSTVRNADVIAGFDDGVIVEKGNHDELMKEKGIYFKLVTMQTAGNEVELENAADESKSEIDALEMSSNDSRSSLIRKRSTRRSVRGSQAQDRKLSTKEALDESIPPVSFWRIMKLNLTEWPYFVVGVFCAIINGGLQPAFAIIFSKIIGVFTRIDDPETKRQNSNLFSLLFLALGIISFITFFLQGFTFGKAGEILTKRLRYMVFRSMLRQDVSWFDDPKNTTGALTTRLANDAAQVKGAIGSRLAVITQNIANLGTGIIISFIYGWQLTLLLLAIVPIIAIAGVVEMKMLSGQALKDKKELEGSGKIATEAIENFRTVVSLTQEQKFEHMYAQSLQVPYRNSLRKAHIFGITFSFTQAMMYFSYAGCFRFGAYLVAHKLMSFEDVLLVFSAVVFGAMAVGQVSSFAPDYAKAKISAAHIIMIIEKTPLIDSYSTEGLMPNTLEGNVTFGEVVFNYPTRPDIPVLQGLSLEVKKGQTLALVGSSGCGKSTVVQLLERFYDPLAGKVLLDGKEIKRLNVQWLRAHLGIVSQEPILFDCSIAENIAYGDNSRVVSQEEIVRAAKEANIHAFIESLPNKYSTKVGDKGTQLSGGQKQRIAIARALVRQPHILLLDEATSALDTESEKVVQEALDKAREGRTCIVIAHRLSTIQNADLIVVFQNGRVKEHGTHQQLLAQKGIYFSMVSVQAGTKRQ

With `CCS(=O)(=O)N1CC(CC#N)(n2cc(-c3ncnc4[nH]ccc34)cn2)C1` [Baricitinib] the OAT3 substrate (OAT3 [1]) was “substrate of OAT3”, the “Uptake into OAT3-transfected cells relative to control cells” value (OAT3 [1]; 1-min incubation) was “approximately double” and the “OAT3 Vmax” value (OAT3 [1]; PBPK input) was 70.76 pmol/min/10^6 cells. The “OAT3 Vmax” value (OAT3 [1]; average of two experiments) was 176.9 pmol/min/mg protein, the “OAT3 Vmax (individual experiments)” value (OAT3 [1]; each of two separate experiments) was 164.3 ± 7.97 pmol/min/mg protein and 189.5 ± 27.10 pmol/min/mg protein and the P-gp substrate (P-gp) was “P‐gp substrate”. It also gave a Papp at 5 μM (P-gp; dog, MDCK) of 6.6 ×10⁻⁶ cm/s, a Papp A→B at 5 µM (P-gp; dog, MDCK-MDR1) of 0.9 ×10⁻⁶ cm/s and a Papp B→A at 5 µM (P-gp; dog, MDCK-MDR1) of 35.2 ×10⁻⁶ cm/s. The BCRP substrate (BCRP) was “substrate of BCRP”, the Papp A→B at 5 µM (BCRP; dog) was 0.83 ×10⁻⁶ cm/s and the Papp B→A at 5 µM (BCRP; dog) was 10.1 ×10⁻⁶ cm/s. The OCT2 substrate (OCT2) was “not a substrate”, the OATP1B1 substrate (OATP1B1) was “not a substrate” and the “Observed/Predicted AUC ratio +/- probenecid” value (OAT3 [2]) was 1.0. The “Observed/Predicted Cmax ratio +/- probenecid” value (OAT3 [2]) was 0.9, the pKa [3] was 4 and the fraction unbound (Plasma protein binding) was 0.5.
